Each structure is given as a SMILES string.

The target in the assay is T1, Human ATX protein (Homo sapiens, UniProt Q13822).
T1 construct: made in house
Briefly: Autotaxin (ATX) assay, FRET with FS-3 substrate. It is filed as biochemical. Conditions: upper bound bins (no greater than 100, 250 or 500 nM); FS-3 2 μM, ATX 1.0 μg/mL. The gist of the method: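 In-house human ATX (1.0 μg/mL final) was preincubated with compound for 30 min at room temperature in Tris buffer pH 7.4 with NaCl, KCl, CaCl2, MgCl2 and 1 mg/mL fatty acid-free BSA. FS-3 (2 μM final) was added and the plate shaken 2 h at room temperature in the dark. Fluorescence was read at ex 485/em 538 nm.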
The IC50 is the midpoint of a concentration-inhibition curve. Read a low IC50 as greater potency. As to `Cc1nnc(-c2cc3n(n2)CCCN(C(=O)OCc2cc(C(F)(F)F)cc(C(F)(F)F)c2)C3)o1` [Example 119, 3,5-Bis(trifluoromethyl)benzyl 2-(5-methyl-1,3,4-oxadiazol-2-yl)-7,8-dihydro-4H-pyrazolo[1,5-a][1,4]diazepine-5(6H)-carboxylate], the IC50 was not above 100 nM. The compound `CN(C)S(=O)(=O)c1cc2n(n1)CCCN(C(=O)OCc1cc(C(F)(F)F)cc(C(F)(F)F)c1)C2` [Example 302, 3,5-bis(trifluoromethyl)benzyl 2-(N,N-dimethylsulfamoyl)-7,8-dihydro-4H-pyrazolo[1,5-a][1,4]diazepine-5(6H)-carboxylate] had an IC50 not above 100 nM.

Turning to `N#Cc1cc2n(n1)CCCN(C(=O)OCc1cc(F)cc(C(F)(F)F)c1)C2` [Example 129], the IC50 is not above 500 nM.

For the compound `CC(N)c1cc2n(n1)CCCN(C(=O)OCc1cc(C(F)(F)F)cc(C(F)(F)F)c1)C2` (stereo not drawn) [Example 147, 3,5-Bis(trifluoromethyl)benzyl 2-(1-aminoethyl)-7,8-dihydro-4H-pyrazolo[1,5-a][1,4]diazepine-5(6H)-carboxylate], the IC50 was not above 500 nM.

`COC(=O)C1CC2CCCC(C1)N2C(=O)c1cc2n(n1)CCCN(C(=O)OCc1cc(Cl)cc(Cl)c1)C2` (stereo not drawn) [Example 95, 3,5-Dichlorobenzyl 2-(3-(methoxycarbonyl)-9-azabicyclo[3.3.1]nonane-9-carbonyl)-7,8-dihydro-4H-pyrazolo[1,5-a][1,4]diazepine-5(6H)-carboxylate]: the half-maximal inhibitory concentration (IC50) was not above 100 nM.

`CC1CN(c2cc3n(n2)CCCN(C(=O)OCc2cc(C(F)(F)F)cc(C(F)(F)F)c2)C3)CC(C)N1` (stereo not drawn) [Example 345] registered an IC50 not above 100 nM. In turn, `O=C(OCc1cc(C(F)(F)F)cc(C(F)(F)F)c1)N1CCCn2nc(N3CCNC4(CC4)C3)cc2C1` [Example 348] displayed an IC50 not above 100 nM. `O=C(OCc1cc(Cl)cc(C(F)(F)F)c1)N1CCCn2nc(C(=O)N3CCNCC34CCC4)cc2C1` [Example 175] yielded an IC50 not above 100 nM. The same measure for `O=C(O)C1CC2CCCC(C1)N2C(=O)c1cc2n(c1)CCCN(C(=O)OCc1cc(Cl)cc(Cl)c1)C2` (stereo not drawn) [Example 103]: not above 100 nM; for `N#CC1CNCCN1C(=O)c1cc2n(n1)CCCN(C(=O)OCc1cc(Cl)cc(C(F)(F)F)c1)C2` (stereo not drawn) [Example 196]: not above 100 nM. The compound `CN(C)C(=O)c1cc2n(n1)CCN(C(=O)OCc1cc(C(F)(F)F)cc(C(F)(F)F)c1)C2` [Example 480] displayed an IC50 not above 250 nM.

The compound `CC(c1cc2n(n1)CCN(C(=O)OCc1cc(C(F)(F)F)cc(C(F)(F)F)c1)C2)N1CCC(O)CC1` (stereo not drawn) [Example 457] yielded an IC50 not above 250 nM. The same measure for `C[C@@H]1CNC[C@H](C)N1C(=O)c1cc2n(n1)CCCN(C(=O)OCc1cc(Cl)cc(C(F)(F)F)c1)C2` [Example 164]: not above 100 nM; for `O=C(OCc1cc(Cl)cc(Cl)c1)N1CCCn2nc(C(=O)N3C4CCCC3CCC4)cc2C1` [Example 12, 3,5-Dichlorobenzyl 2-(9-azabicyclo[3.3.1]nonane-9-carbonyl)-7,8-dihydro-4H-pyrazolo[1,5-a][1,4]diazepine-5(6H)-carboxylate]: not above 100 nM; for `CN1CC2CN(c3cc4n(n3)CCCN(C(=O)OCc3cc(C(F)(F)F)cc(C(F)(F)F)c3)C4)CC2C1` (stereo not drawn) [Example 349]: not above 100 nM. In turn, `CCOC(=O)c1cc2n(n1)CCCN(C(=O)OCCc1cc(C(F)(F)F)cc(C(F)(F)F)c1)C2` [Example 141, 5-(3,5-Bis(trifluoromethyl)phenethyl) 2-ethyl 7,8-dihydro-4H-pyrazolo[1,5-a][1,4]diazepine-2,5(6H)-dicarboxylate] had an IC50 not above 500 nM. In turn, `O=C(O)C1CC2CCC(C1)N2C(=O)c1cc2n(n1)CCCN(C(=O)OCc1cc(Cl)cc(Cl)c1)C2` (stereo not drawn) [Example 97, 8-(5-(((3,5-Dichlorobenzyl)oxy)carbonyl)-5,6,7,8-tetrahydro-4H-pyrazolo[1,5-a][1,4]diazepine-2-carbonyl)-8-azabicyclo[3.2.1]octane-3-carboxylic acid] yielded an IC50 not above 100 nM. The compound `O=C(O)c1cc2n(n1)CCN(C(=O)OCc1cc(Cl)cc(C(F)(F)F)c1)C2` [Example 410, 5-(((3-chloro-5-(trifluoromethyl)benzyl)oxy)carbonyl)-4,5,6,7-tetrahydropyrazolo[1,5-a]pyrazine-2-carboxylic acid] yielded an IC50 not above 250 nM. As to `O=C(OCc1cc(C(F)(F)F)cc(C(F)(F)F)c1)N1CCn2nc(C3CN4CCC[C@H]4CO3)cc2C1` (stereo partly drawn) [Example 255, 3,5-bis(trifluoromethyl)benzyl 2-((8aS)-hexahydro-1H-pyrrolo[2,1-c][1,4]oxazin-3-yl)-6,7-dihydropyrazolo[1,5-a]pyrazine-5(4H)-carboxylate], the IC50 was not above 100 nM. The same measure for `CC1CNCCN1C(=O)c1cc2n(n1)CCN(C(=O)OCc1cc(C(F)(F)F)cc(C(F)(F)F)c1)C2` (stereo not drawn) [Example 423]: not above 100 nM; for `O=C(O)c1cc2n(n1)CCCN(C(=O)OCc1cccc(C(F)(F)F)c1)C2` [Example 67, 5-(((3-(Trifluoromethyl)benzyl)oxy)carbonyl)-5,6,7,8-tetrahydro-4H-pyrazolo[1,5-a][1,4]diazepine-2-carboxylic acid]: not above 500 nM; for `CC(C)(C)OC(=O)N1CCC(c2cc3n(n2)CCCN(C(=O)OCc2cc(C(F)(F)F)cc(C(F)(F)F)c2)C3)C1` (stereo not drawn) [Example 383]: not above 100 nM. Consider `CC(c1cc2n(n1)CCN(C(=O)OCc1cc(C(F)(F)F)cc(C(F)(F)F)c1)C2)N1CCN(C(=O)OC(C)(C)C)CC1` (stereo not drawn) [Example 448], for which the IC50 was not above 100 nM. Consider `CC(=O)c1cc2n(n1)CCN(C(=O)OCc1cc(C(F)(F)F)cc(C(F)(F)F)c1)C2` [Example 401, 3,5-bis(trifluoromethyl)benzyl 2-acetyl-6,7-dihydropyrazolo[1,5-a]pyrazine-5(4H)-carboxylate], for which the IC50 is not above 500 nM. As to `CC(C)(C)OC(=O)N1CCN(C(=O)c2cc3n(n2)CCN(C(=O)OCc2cc(Cl)cc(C(F)(F)F)c2)C3)C(C)(C)C1` [Example 475], the IC50 was not above 100 nM. `O=C(OCc1cc(Cl)cc(C(F)(F)F)c1)N1CCCn2nc(C(=O)N3CCNC(C(F)(F)F)C3)cc2C1` (stereo not drawn) [Example 189] returned an IC50 not above 100 nM. On to `O=C(OCc1cc(C(F)(F)F)cc(C(F)(F)F)c1)N1CCCn2nc(C3=CC4CCC(C3)N4)cc2C1` (stereo not drawn) [Example 376], for which the IC50 was not above 100 nM.

For `CN1CCC2C1CCN2c1cc2n(n1)CCCN(C(=O)OCc1cc(C(F)(F)F)cc(C(F)(F)F)c1)C2` (stereo not drawn) [Example 360], the IC50 was not above 100 nM.

On to `O=C(O)c1cc2n(n1)CC(O)CN(C(=O)OCc1cc(C(F)(F)F)cc(C(F)(F)F)c1)C2` (stereo not drawn) [Example 421], for which the IC50 was not above 500 nM. In turn, `O=C(OCc1cc(Cl)cc(C(F)(F)F)c1)N1CCCn2nc(C3CN4CCCC[C@@H]4CO3)cc2C1` (mixture of isomers) [Example 254, 3-chloro-5-(trifluoromethyl)benzyl 2-((9aR)-octahydropyrido[2,1-c][1,4]oxazin-3-yl)-7,8-dihydro-4H-pyrazolo[1,5-a][1,4]diazepine-5(6H)-carboxylate] returned an IC50 not above 100 nM. Take `O=C(OCc1cc(C(F)(F)F)cc(C(F)(F)F)c1)N1CCCn2nc(C3CCNCC3)cc2C1` [Example 375, 3,5-bis(trifluoromethyl)benzyl 2-(piperidin-4-yl)-7,8-dihydro-4H-pyrazolo[1,5-a][1,4]diazepine-5(6H)-carboxylate]: the IC50 was not above 100 nM. As for `CC(C)C(Nc1cc2n(n1)CCCN(C(=O)OCc1cc(C(F)(F)F)cc(C(F)(F)F)c1)C2)C(=O)O` (stereo not drawn) [Example 363], the IC50 is not above 100 nM. Compound `Cc1cc(-c2cc3n(n2)CCCN(C(=O)OCc2cc(Cl)cc(C(F)(F)F)c2)C3)ccn1` [Example 370] gave an IC50 not above 100 nM. As to `O=C(O)c1nn2c(c1F)CN(C(=O)OCc1cc(C(F)(F)F)cc(C(F)(F)F)c1)CCC2` [Example 507, 5-(((3,5-bis(Trifluoromethyl)benzyl)oxy)carbonyl)-3-fluoro-5,6,7,8-tetrahydro-4H-pyrazolo[1,5-a][1,4]diazepine-2-carboxylic acid], the IC50 is not above 100 nM. `CC(C)(C)OC(=O)N1CCN(C(=O)c2cc3n(n2)CCN(C(=O)OCc2cc(Cl)cc(C(F)(F)F)c2)C3)CC1` [Example 471] had an IC50 not above 100 nM. On to `CCCN1CCN(c2cc3n(n2)CCCN(C(=O)OCc2cc(C(F)(F)F)cc(C(F)(F)F)c2)C3)CC1` [Example 357], for which the IC50 was not above 100 nM. `CN1CCN(c2cc3n(n2)CCCN(C(=O)OCc2cc(C(F)(F)F)cc(C(F)(F)F)c2)C3)CC12CC2` [Example 353] displayed an IC50 not above 100 nM.

Consider `CNC(=O)c1cc2n(n1)CCCN(C(=O)OCc1cc(Cl)cc(Cl)c1)C2` [Example 27, 3,5-Dichlorobenzyl 2-(methylcarbamoyl)-7,8-dihydro-4H-pyrazolo[1,5-a][1,4]diazepine-5(6H)-carboxylate], for which the 50% inhibitory concentration (IC50) was not above 100 nM. With `CCN1CCN(c2cc3n(n2)CCCN(C(=O)OCc2cc(C(F)(F)F)cc(C(F)(F)F)c2)C3)CC1` [Example 354], the IC50 is not above 100 nM. The compound `CC(C)(C(=O)O)c1cc2n(n1)CCCN(C(=O)OCc1cc(C(F)(F)F)cc(C(F)(F)F)c1)C2` [Example 388] registered an IC50 not above 100 nM. In turn, `C[C@@H]1CNC[C@H](C)N1C(=O)c1cc2n(n1)CCCN(C(=O)OCc1cc(C(F)(F)F)cc(C(F)(F)F)c1)C2` [Example 163] gave an IC50 not above 100 nM. Consider `O=C(NC1CCOCC1)c1cc2n(n1)CCCN(C(=O)OCc1cc(C(F)(F)F)cc(C(F)(F)F)c1)C2` [Example 506], for which the IC50 is not above 100 nM. The same measure for `O=C(OCc1cc(C(F)(F)F)cc(C(F)(F)F)c1)N1CCCn2nc(C(=O)N3CC4CCC(C3)N4)cc2C1` [Example 221]: not above 100 nM; for `O=C(OCc1cc(C(F)(F)F)cc(C(F)(F)F)c1)N1CCCn2nc(S(=O)(=O)N3C4CCCC3CC4)cc2C1` [Example 305]: not above 100 nM; for `O=C(OCc1cc(C(F)(F)F)cc(C(F)(F)F)c1)N1CCCn2nc(N3CCN4CCC[C@@H]4C3)cc2C1` [Example 347]: not above 100 nM.

Source of the values: patent US20160039825A1 (BIOGEN MA INC., priority 2013, published 2016).
